Assay results as given in US10183032B2, “Methods for treating bacterial infection” (Ball State Innovation Corporation, priority 2012, dated 2019).

How the values were obtained:
Staphylococcus aureus [1] = experiment: S. aureus invasion in all cell types examined; format: cell-based; conditions: HUVEC, HEK, U-87 MG, RAW and A549
Experimental: Two days prior to the assay, TSB is inoculated with S. aureus (American Type Culture Collection #29213) and incubated overnight (225 rpm, 37° C.). Bacteria are subcultured the next day into fresh TSB. On the day of the assay, bacteria are pelleted (10000×g, 37° C., 3 min), are washed in saline, are pelleted as above, are resuspended in saline, then fluorescently labeled by incubation with rabbit anti-mouse IgG Alexa Fluor 488 (final concentration 8 μg/ml, RT, 20 min). Protein A, a S. aureus cell surface protein, avidly binds IgG thereby labeling the bacteria. Labeled bacteria are washed twice as above and are resuspended to 3×10^8 CFU/ml in saline. Host cells are incubated with the bacteria for 1 hour (1.2×10^8 CFU/ml for same-day recovery, 5×10^6 for recovery after 48 hours, 1.4×10^7 CFU/ml; 5% CO2, 37° C.). […] To detect the level of infection using flow cytometry, cells that have been infected with fluorescently-labeled bacteria are washed extensively with PBS, lifted from 96-well plate by incubation with trypsin, washed extensively in FACS buffer (2% BSA/0.1% sodium azide/PBS), fixed (FACS buffer containing 0.74% formaldehyde), and are counted using an Accuri flow cytometer (BD, Franklin Lakes, N.J.). They are also lifted from culture dishes using cell scrapers, pelleted, fixed (1% BSA/0.74% formaldehyde/PBS), and are counted using an Accuri flow cytometer. […]

actin stress fibers [2] = experiment: Actin stress fiber depolymerization in HUVEC during S. aureus infection; format: cell-based, human; conditions: 18-20 h pretreatment, S. aureus 1 h
Experimental: (§1) FIG. 8A is an image depicting ML 141 limiting actin stress fiber depolymerization during infection. Human umbilical vein endothelial cells (HUVEC) were incubated with ML 141 or with the vehicle control polyethylene glycol (PEG) 18-20 h prior to infection with Staphylococcus aureus (1 h). Actin was detected using Alexa Fluor 488 phalloidin. Arrows indicate intact actin stress fibers. Arrowhead indicates cell lacking actin stress fibers. 100 cells/treatment were evaluated from randomly selected fields. Data are presented as the % of cells in which actin stress fibers were not detected. Scale bar is 50 μm.
as §1, with “8B” for “8A”, “RSM 06” for “ML 141”, “200” for “Arrows indicate intact actin stress fibers. Arrowhead indicates cell lacking actin stress fibers. 100”
as §1, with “8C” for “8A”, “RSM 16” for “ML 141”, “200” for “Arrows indicate intact actin stress fibers. Arrowhead indicates cell lacking actin stress fibers. 100”
HUVEC are plated at 1×10^5 cells/ml into 35 mm glass-bottom dishes (MatTek, Ashland, Mass.) are coated with Attachment Factor, are pretreated, and are infected (1.2×10^8 CFU) as described above. […] Alexa 488 is excited by the 488 nanommeter Ar laser line and is detected using a 505-530 nanometer bandpass filter. […] Maximum pixel projections from the Z-stacks are generated and are analyzed for actin morphology.

Staphylococcus aureus [3] = experiment: Assessment of bactericidal activity (DMEM, 10% fetal bovine serum); format: cell-based; conditions: 3.2 × 10^6 CFU S. aureus, 1 h in DMEM with 10% fetal bovine serum; head prints 20 mM
β1 integrin subunit = experiment: β1 integrin surface expression in HUVEC, flow cytometry; format: cell-based, human; conditions: ML 141 10 μM versus DMSO
Experimental: FIG. 10B is a graph illustrating that expression of the […] integrin subunit remains substantially unchanged in HUVEC incubated with DMSO or ML 141 (10 μM). Pretreated HUVEC were stained with PE conjugated anti-β1 and examined using flow cytometry (no difference between groups was detected, t-test, p>0.05).
To examine β1 surface expression, recycling of the integrin was terminated (4° C., 15 min) and HUVEC lifted from plates using cell scrapers. After washing in FACS buffer (2% BSA/0.1% sodium azide/PBS), cells were incubated with PE-conjugated anti-β1 (BD; 30 min, on ice), washed, fixed in FACS buffer containing 4% paraformaldehyde, and analyzed using an Accuri C6 flow cytometer (BD).

actin stress fibers [4] = experiment: Actin stress fibers in HUVEC during S. pyogenes infection; format: cell-based, human; conditions: ML 141 10 μM, 18-20 h, MOI 30, 2 h
Experimental: FIG. 13 is an image depicting ML 141 decreasing actin stress fiber depolymerization during infection. HUVEC were incubated with vehicle control dimethyl sulfoxide (DMSO) or with ML 141 (10 μM) 18-20 h prior to infection with Streptococcus pyogenes at a multiplicity of infection of 30 (2 h). Actin was detected using Alexa Fluor 488 phalloidin. Data are presented as the percentage of HUVEC with no detectable actin stress fibers. 100-200 cells/treatment were evaluated from randomly selected fields. Scale bar is 50 μm (P<0.05 by χ^2 test of association).
For actin assessment, HUVEC were seeded at 6×10^5 cells/ml in 35 mm glass-bottom dishes (MatTek, Ashland, Mass.) that had been coated with Attachment Factor. HUVEC were pretreated with ML 141 or with DMSO and treated with gentamicin as described above. HUVEC were washed three times with PBS and fixed with 4% paraformaldehyde for 30 min, RT. HUVEC were gently washed four times with PBS, permeabilized and blocked with 1% BSA/0.1% Triton (Sigma-Aldrich, T8787). HUVEC were gently washed four times with PBS, probed for actin with Alexa Fluor 488 phalloidin (1:40, Life Technologies, A12379) in PBS (30 min, RT) and washed three more times with PBS. […] A total of 200 HUVEC were assessed for actin stress fiber disassembly from randomly selected fields-of-view. […]

COc1ccc(C2CC(c3ccccc3)=NN2c2ccc(S(N)(=O)=O)cc2)cc1 (centres unmarked) [ML 141, 4-[3-(4-methoxyphenyl)-5-phenyl-3,4-dihydropyrazol-2-yl]benzenesulfonamide]
inhibition of invasion in all cell types examined (Staphylococcus aureus [1]): inhibited invasion | depolymerization of actin stress fibers during infection (actin stress fibers [2]): remained intact | CFU/mL (×10^9 ± SEM), Compound (Staphylococcus aureus [3]): 0.9 ± 0.09 ×10^9 CFU/mL | expression of β1 integrin subunit (β1 integrin subunit): no difference | reordering of actin stress fibers during S. pyogenes infection (actin stress fibers [4]): less reordering of actin stress fibers
